Series [1] concerns 2% sheep red blood cells (SRBC). The series is described as follows: Hemolysis assay. The settings on record: Triton X-100 0.1% (w/v), 2% SRBC, 37 °C, 1 h, absorbance 540 nm; printed once per peptide line. It is filed as cell-based. The procedure:
The 2% sheep red blood cells (SRBC) were purchased from Nanjing Senbeijia Biological Technology Co., Ltd (Nangjing, China). A total of 4 mL of 2% SRBC was taken, rinsed twice with 4 mL of PBS by centrifugation for 5 min at 3000 rpm and the precipitates were resuspended in 4 mL of PBS. We added 100 μL of 2% SRBC to each well of the 96-well plate and then added 100 μL peptide solutions of different concentrations (2, 4, 8, 16, 32, 64, 128 and 256 μM) in triplicate at 37 °C for 1 h. 100 μL of PBS buffer and 100 uL of Triton X-100 0.1% (w/v) were mixed with SRBC as negative and positive controls, respectively. All samples were centrifuged at 3000 rpm for 5 min, 100 μL supernatant was collected and transferred to a new 96-well plate, and its absorbance was measured at 540 nm. The calculation formula of hemolysis rate is as follows. (5) % Hemolysis=absorbancesample-absorbancenegative/absorbancepositive-absorbancenegative×100

In series [2] the test system is cancer cell lines. Set-up: method as in 6 sources, ref CancerPPD [45] and SATPdb ||| ref CancerPPD/SATPdb ||| ref CancerPPD, SATPdb, Swissprot (PDB) ||| ref CancerPPD/SATPdb/Swissprot(PDB) ||| ref CancerPPD / SATPdb ||| ... The settings on record: cited from earlier work. The text has this:
Supplement ijms-22-05630-s001.zip/ACPs(seguence).xlsx, sheet "D1" | column: Activity || Supplement ijms-22-05630-s001.zip/ACPs(seguence).xlsx, sheet "D2" | column: Activity || Supplement ijms-22-05630-s001.zip/ACPs(seguence).xlsx, sheet "D3" | column: Activity || (+ 2 further places)

In series [3] the test system is erythrocytes. The settings on record: cited from earlier work. From the text:
Supplement ijms-22-05630-s001.zip/Hemloytic Peptides(seguence).xlsx, sheet "HD1" | column: Activity || Supplement ijms-22-05630-s001.zip/Hemloytic Peptides(seguence).xlsx, sheet "HD2" | column: Activity || Supplement ijms-22-05630-s001.zip/Hemloytic Peptides(seguence).xlsx, sheet "HD3" | column: Activity

The test system of series [4] is many types of cells, including non-cancer cells. The settings on record: cited from earlier work; for Activity: toxic peptides dataset TD2, class label 1 (toxic, positive set) or 0 (non-toxic AMP, negative set), ref SATPdb.
The mark [5] stands for this setting: ACPs dataset D1, 1 = ACP (positive), 0 = non-ACP (negative), label taken from databases, ref CancerPPD [45] and SATPdb.
Setting [6] is: ACPs dataset D4 (sheet "D4"), label 1 = ACP (CancerPPD ID), 0 = non-ACP (non-anticancer AMP, SATPdb ID), ref CancerPPD [45] and SATPdb.
The mark [7] stands for this setting: ACPs dataset D3 (sheet "D3"), label 1 = ACP, 0 = non-ACP, ref CancerPPD/SATPdb.
[8] abbreviates: ACPs dataset D4 (sheet "D4"), label 1 = ACP, 0 = non-ACP, ref CancerPPD / SATPdb.
The mark [9] stands for this setting: ACPs dataset D5, sheet "D5", label 1 = ACP, 0 = non-ACP, ref CancerPPD [45] and SATPdb.
The mark [10] stands for this setting: ACPs dataset D3 (supplement sheet "D3"), 1 = ACP, 0 = non-ACP, ref CancerPPD [45] and SATPdb.
Where [11] appears, read: Hemolytic peptides dataset HD2, label 1 = hemolytic, 0 = non-hemolytic, ref Hemolytik/SATPdb.
[12] abbreviates: hemolytic peptides dataset HD3, 1 = hemolytic (positive set), 0 = non-hemolytic (negative set), labels taken from databases, ref Hemolytik/SATPdb.

Like-named read-outs stand apart in the source and are kept apart here.

The source of these data is article PMC8198792, “Prediction of Anticancer Peptides with High Efficacy and Low Toxicity by Hybrid Model Based on 3D Structure of Peptides” (International Journal of Molecular Sciences, 2021).

With Triton X-100 [reference compound], the “Hemolytic effect on 2% sheep erythrocytes, Positive Control (Triton X-100 (0.1%))” value in series [1] is on record as “+ (The “+” symbol indicates that the hemolysis rate exceeds 10% when peptides concentration reaches 100 μM)”.
As for FFGWLIRGAIHAGKAIHGLIHRRRH [satpdb10145], the Activity in series [2] (setting [5]) is 0; in series [2] (setting [6]), 0; in series [3], 1; in series [4], 1.
Take GLLGPLLKIAAKVGSNLL [satpdb10126]: the Activity in series [3] and in series [4] was 1 throughout.
For AIGSILGALAKGLPTLISWIKNR [satpdb14614], the Activity in series [2] (setting [7]) is listed as 0; in series [2] (setting [8]), 0; in series [2] (setting [9]) it was 0; in series [4], 1.
On to ILGPVLGLVGNALGGLIKKL [satpdb12428], for which the Activity is 0 in series [2] (setting [7]), 0 in series [2] (setting [8]), 0 in series [2] (setting [9]) and 1 in series [4].
Regarding ILPLVGNLLNDLL [satpdb10023], the Activity in series [2] (setting [10]), in series [2] (setting [8]), in series [2] (setting [9]) and in series [4] was 0 in each case.
For the substance ILPFLAGLFSKIL [satpdb10916], the Activity in series [2] (setting [10]), in series [2] (setting [8]), in series [2] (setting [9]) and in series [4] was 0 each time.
Take GFLGSLLKTGLKVGSNLL [satpdb10293]: the Activity is given as 0 in series [2] (setting [5]), 0 in series [2] (setting [6]) and 1 in series [4].
Take FLPLLVGAISSILPKIF [satpdb12883]: the Activity in series [2] (setting [7]) is reported as 0; in series [2] (setting [8]), 0; in series [2] (setting [9]), 0; in series [4], 1.
“VIPFVASVAAEMMQHVYCAASKKC [satpdb10043, toxic peptide, datasets TD1 and TD3]”: the Activity in series [2] (setting [5]) and in series [2] (setting [6]) was 0 in each case. In series [4] (natural toxic peptide dataset TD1, label collected from database, ref SATPdb [34]), the “Activity (dataset TD1, toxic 1 / non-toxic 0)” value is listed as 1.
As to GFRDVLKGAAKAFVKTVAGHIAN [satpdb12067], the Activity in series [2] (setting [7]), in series [2] (setting [8]), in series [2] (setting [9]) and in series [4] was 0 throughout.
Turning to LLSLVPHAINAVSAIAKHF [satpdb10338], the Activity in series [2] (setting [10]), in series [2] (setting [8]), in series [2] (setting [9]) and in series [4] was 0 throughout.
With IDWKKLLDAAKQIL [satpdb24876], the Activity is 0 in series [3] (setting [11]), 0 in series [3] (setting [12]) and 1 in series [4].
As to RGGRLCYCRRRFCICV [satpdb14720], the Activity in series [2] (setting [7]), in series [2] (setting [8]), in series [2] (setting [9]) and in series [4] was 0 each time.
With FVGAIAAALPHVISAIKNAL [satpdb12079], the Activity in series [2] (setting [7]) is 0; in series [2] (setting [8]), 0; in series [2] (setting [9]) it was 0; in series [3] (setting [11]), 1; in series [3] (setting [12]), 1; in series [4], 1.
Turning to VOLFPWFNQY [satpdb12517], the Activity in series [2] (setting [7]), in series [2] (setting [8]), in series [2] (setting [9]) and in series [4] was 0 in each case.
As to “ACNFQSCWATCQAQHSIYFRRAFCDRSQCKCVFVRG [satpdb14312]”, the Activity in series [2] (setting [7]), in series [2] (setting [8]), in series [2] (setting [9]) and in series [4] was 0 in each case.
As to FLWGLIPGAISAVTSLIKK [satpdb12159], the Activity in series [2] (setting [7]), in series [2] (setting [8]), in series [2] (setting [9]) and in series [4] was 0 each time.
In the case of “GMFTNMLKGIGKLAGQAALGAVKTLA [satpdb11616]”, the Activity in series [2] (setting [10]), in series [2] (setting [8]), in series [2] (setting [9]) and in series [4] was 0 each time.
For the substance VIPIVSGLLSSLL [satpdb12918], the Activity in series [2] (setting [7]), in series [2] (setting [8]), in series [2] (setting [9]) and in series [4] was 0 throughout.
As for GLFGILGSVAKHVLPHVIPVVAEHL [satpdb11946], the Activity in series [2] (setting [7]), in series [2] (setting [8]), in series [2] (setting [9]) and in series [4] was 0 throughout.
In the case of FIGAVAGLLSKIF [satpdb10850], the Activity in series [2] (setting [10]) was 0; in series [2] (setting [8]), 0; in series [2] (setting [9]), 0; in series [4], 1.
With “GLWSNIKTAGKEAAKAALKAAGKAALGAVTDAV [satpdb12078]”, the Activity in series [2] (setting [7]), in series [2] (setting [8]), in series [2] (setting [9]) and in series [4] was 0 each time.
Regarding GLWEKIKEKANELVSGIVEGVK [satpdb12905], the Activity in series [2] (setting [7]), in series [2] (setting [8]), in series [2] (setting [9]) and in series [4] was 0 throughout.
Consider GVLSAFKNALPGIMKIIV [satpdb14593], for which the Activity in series [2] (setting [7]), in series [2] (setting [8]), in series [2] (setting [9]) and in series [4] was 0 throughout.
Turning to GVVTDLLKTAGKLLGNLFGSLSG [satpdb14110], the Activity in series [2] (setting [7]) was 0; in series [2] (setting [8]) it was 0; in series [2] (setting [9]), 0; in series [4] it was 1.
As for ILPILGNLLNGLL [satpdb12015], the Activity in series [2] (setting [7]) is 0; in series [2] (setting [8]), 0; in series [2] (setting [9]), 0; in series [4], 1.
As to “GIGGALLSVGKLALKGLANVLADKFAN [satpdb14012]”, the Activity in series [2] (setting [7]) is listed as 0; in series [2] (setting [8]) it was 0; in series [2] (setting [9]) it was 0; in series [4], 1.
As for FLPLLASLFSGLF [satpdb11101], the Activity in series [2] (setting [10]), in series [2] (setting [8]), in series [2] (setting [9]) and in series [4] was 0 each time.
